According to US10774071B2, “PD-1/PD-L1 inhibitors” (Gilead Sciences, Inc., priority 2018, dated 2020):
Where two headings read alike, the source gives them in different places.

Legend:
PD-1/PD-L1 = PD-1/PD-L1 (Homo sapiens (Human), UniProt Q9NZQ7); test: PD-1/PD-L1 biochemical protein-protein interaction assay (ALPHA); format: binding; settings: read-out: IC50 PD-L1-PD1
PD-L1 = PD-L1 (Homo sapiens (Human), UniProt Q9NZQ7); test: PD-L1/PD-L1 dimerization biochemical protein-protein interaction assay (ALPHA); format: binding; settings: read-out: AC50 PDL1 Dimer 1 nM
Chain of PD-L1 (Q9NZQ7 19-238): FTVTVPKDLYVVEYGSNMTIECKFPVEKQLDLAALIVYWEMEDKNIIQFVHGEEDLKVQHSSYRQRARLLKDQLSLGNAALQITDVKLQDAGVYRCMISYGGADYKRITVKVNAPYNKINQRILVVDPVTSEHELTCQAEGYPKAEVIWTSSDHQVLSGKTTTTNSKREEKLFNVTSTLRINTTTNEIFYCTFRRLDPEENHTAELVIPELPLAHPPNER
Chain of PD-L1 (Q9NZQ7 19-238): as above

[1] = 0.3 nM His tagged PD-L1, 2.5 nM biotinylated Fc-PD-1, readings of 0.064 nM are equal to or less than 0.064 nM
[2] = 0.5 nM His tagged PD-L1 and 0.5 nM FLAG tagged PD-L1, Table 4A
[3] = 0.3 nM His tagged PD-L1, 2.5 nM biotinylated Fc-PD-1, Table 3B
[4] = 0.5 nM His tagged PD-L1 and 0.5 nM FLAG tagged PD-L1, Table 4B

Chain of PD-1/PD-L1 (Q9NZQ7 19-238): as above

Compound	IC50 (PD-1/PD-L1; [1]) [nM]	AC50 (PD-L1; [2]) [nM]	IC50 (PD-1/PD-L1; [3]) [nM]	AC50 (PD-L1; [4]) [nM]
COc1nc(N[C@H]2CCc3c(-c4cccc(-c5ccc(CNC[C@@H]6CCC(=O)N6)c(OCC#N)n5)c4Cl)cccc32)c(C(F)(F)F)cc1CNC1(C(=O)O)CC1 [A-29]	≤ 0.064	5.57		
COc1nc(-c2cccc(-c3cccc4c3CC[C@@H]4Oc3nc(OC)c(CN4CC(C(=O)O)C5(CCOC5)C4)cc3Cl)c2Cl)ccc1CNC[C@@H]1CCC(=O)N1 (stereo partly drawn) [B-70]			0.064	31.9
COc1nc(-c2cccc(-c3cccc4c3CC[C@@H]4Nc3nc(OC)c(CN4CC5(C(=O)O)CCC4CC5)cc3C(F)(F)F)c2Cl)ccc1CNC[C@@H]1CCC(=O)N1 [A-1]	≤ 0.064	13.2		
COC(=O)[C@H]1[C@@H]2CN(Cc3cc(Cl)c(O[C@H]4CCc5c(-c6cccc(-c7ccc(CNC[C@@H]8CCC(=O)N8)c(OC)n7)c6Cl)cccc54)nc3OC)C[C@@H]21 [B-94]			0.068	103
COC[C@H](NCc1nc(C(F)(F)F)c(N[C@H]2CCc3c(-c4cccc(-c5ccc(CNC[C@@H]6CCC(=O)N6)c(OC)n5)c4Cl)cccc32)nc1OC)C(=O)O [A-100]	≤ 0.064	7.11		
COc1nc(-c2cccc(-c3cccc4c3CC[C@@H]4Oc3nc(OC)c(CN4CCC[C@@]4(C)C(=O)O)cc3C)c2Cl)ccc1CNC[C@@H]1CCC(=O)N1 [B-237]			0.064	20.7
CNC(=O)CNCc1nc(C(F)(F)F)c(N[C@H]2CCc3c(-c4cccc(-c5ccc(CNC[C@@H]6CCC(=O)N6)c(OC)n5)c4Cl)cccc32)nc1OC [A-88]	0.202	60.4		
COc1cc(-c2cccc(-c3cccc4c3CC[C@@H]4Oc3nc(OC)c(CNC(C)(C)C(=O)O)cc3C(F)(F)F)c2Cl)ccc1CNC[C@@H]1CCC(=O)N1 [B-121]			0.064	1.62
COC[C@H](NCc1cc(C(F)(F)F)c(O[C@H]2CCc3c(-c4cccc(-c5ccc(CNC[C@@H]6CCC(=O)N6)c(OC)n5)c4Cl)cccc32)nc1OC)C(=O)O [B-264]			0.064	6.55
COc1nc(-c2cccc(-c3cccc4c3CC[C@@H]4Oc3nc(OC)c(CNC4(C(=O)O)CC4)cc3C(F)(F)F)c2Cl)ccc1CN1CC(C)(O)C1 [B-171]			0.064	15.2
COc1nc(O[C@H]2CCc3c(-c4cccc(-c5cnc(CNC[C@@H]6CCC(=O)N6)cn5)c4Cl)cccc32)c(Cl)cc1CN1CC(C(=O)O)C1 [B-96]			0.064	48.7
COc1nc(-c2cccc(-c3cccc4c3CC[C@@H]4Nc3nc(OC)c(CN4CC(C)(O)C4)nc3C(F)(F)F)c2Cl)ccc1CN1CC[C@@H](C(=O)O)C1 [A-71]	≤ 0.064	52.4		
COc1nc(-c2cccc(-c3cccc4c3CC[C@@H]4Nc3nc(OC)c(CN4CCC[C@@]4(C)C(=O)O)cc3C(F)(F)F)c2Cl)ccc1CNC[C@@H]1CCC(=O)N1 [A-39]	≤ 0.064	17.8		
COc1nc(-c2cccc(-c3cccc4c3CC[C@@H]4Oc3nc(OC)c(CN4CC5(C(=O)O)CCC4CC5)cc3Cl)c2C#N)ccc1CNC[C@@H]1CCC(=O)N1 [B-68]			0.064	48
COc1nc(-c2cccc(-c3cccc4c3CC[C@@H]4Oc3nc(OC)c(CNC(C)(C)CC(=O)O)cc3C(F)(F)F)c2Cl)ccc1CNC[C@@H]1CCC(=O)N1 [B-196]			0.064	6.31
COc1nc(-c2cccc(-c3cccc4c3CC[C@@H]4Nc3nc(OC)c(CNCC(=O)O)nc3C(F)(F)F)c2Cl)ccc1CN1CC(C)(O)C1 [A-75]	≤ 0.064	18.1		
COc1nc(-c2cccc(-c3cccc4c3CC[C@@H]4Oc3nc(OC)c(CN[C@@H](C)C(=O)O)cc3C(F)(F)F)c2Cl)ccc1CN[C@H]1C[C@](C)(O)C1 [B-215]			0.064	8.42
COc1cc(O[C@H]2CCc3c(-c4cccc(-c5ccc(CNC[C@@H]6CCC(=O)N6)c(OC)n5)c4Cl)cccc32)c(C(F)(F)F)cc1CNC1(C(=O)O)CC1 [B-220]			0.064	2.04
COc1nc(-c2cccc(-c3cccc4c3CC[C@@H]4Oc3nc(OC)c(CN[C@@H](C)C(N)=O)cc3C(F)(F)F)c2Cl)ccc1CNC[C@@H]1CCC(=O)N1 [B-265]			0.079	14.2
COc1cc(-c2cccc(-c3cccc4c3CC[C@@H]4Oc3nc(OC)c(CN4CC(C(=O)O)C4)cc3Cl)c2Cl)cc(F)c1CNC[C@@H]1CCC(=O)N1 [B-130]			0.064	4.87
COc1nc(-c2cccc(-c3cccc4c3CC[C@@H]4Oc3nc(OC)c(CNC(C)(C)C(=O)O)cc3C(F)(F)F)c2Cl)ccc1CNC[C@@H]1CCC(=O)N1 [B-12]			0.064	1.12

Compound	IC50 (PD-1/PD-L1; [1]) [nM]	AC50 (PD-L1; [2]) [nM]	IC50 (PD-1/PD-L1; [3]) [nM]	AC50 (PD-L1; [4]) [nM]
COc1nc(-c2cccc(-c3cccc4c3CC[C@@H]4Oc3nc(OC)c(CN4[C@H](C(=O)O)C[C@@H]5C[C@@H]54)cc3C(F)(F)F)c2Cl)ccc1CNC[C@@H]1CCC(=O)N1 [B-137]			0.064	6.19
COc1nc(-c2cccc(-c3cccc4c3CC[C@@H]4Nc3nc(OC)c(CN4CC[C@@](C)(C(=O)O)C4)cc3C(F)(F)F)c2Cl)ccc1CNC[C@@H]1CCC(=O)N1 [A-2, (R)-1-((6-(((S)-4-(2-chloro-3-(6-methoxy-5-(((((S)-5-oxopyrrolidin-2-yl)methyl)amino)methyl)pyridin-2-yl)phenyl)-2,3-dihydro-1H-inden-1-yl)amino)-2-methoxy-5-(trifluoromethyl)pyridin-3-yl)methyl)-3-methylpyrrolidine-3-carboxylic acid]	≤ 0.064	13.5		
COc1nc(-c2cccc(-c3cccc4c3CC[C@@H]4Oc3nc(OCc4cncc(Cl)c4)c(CN4CC[C@H](C(=O)O)C4)cc3Cl)c2Cl)ccc1CNC[C@@H]1CCC(=O)N1 [B-49]			0.064	19.1
COc1nc(O[C@H]2CCc3c(-c4cccc(-c5cc(F)c(CNC[C@@H]6CCC(=O)N6)c(OC)n5)c4Cl)cccc32)c(C(F)(F)F)cc1CN1CC2(C(=O)O)CCC1CC2 [B-190]			0.064	8.98
COc1nc(O[C@H]2CCc3c(-c4cccc(-c5cc(C)c(CN6CC(C)(O)C6)c(OC)n5)c4Cl)cccc32)c(Cl)cc1CN1CC2(C(=O)O)CCC1CC2 [B-57]			0.08	66.5
COc1nc(-c2cccc(-c3cc(F)cc4c3CC[C@@H]4Oc3nc(OC)c(CN4CC5(C(=O)O)CCC4CC5)cc3C(F)(F)F)c2Cl)ccc1CNC[C@@H]1CCC(=O)N1 [B-216]			0.064	20.1
COc1nc(-c2cccc(-c3cccc4c3CC[C@@H]4Nc3nc(OC)c(CN[C@@H](C)C(N)=O)cc3C(F)(F)F)c2Cl)ccc1CNC[C@@H]1CCC(=O)N1 [A-98]	≤ 0.064	40.3		
CNc1nc(-c2cccc(-c3cccc4c3CC[C@@H]4Oc3nc(OC)c(CN4CC[C@@H](C(=O)O)C4)cc3Cl)c2Cl)cnc1CN1CC(C)(O)C1 [B-21]			0.064	31.2
COc1nc(-c2cccc(-c3cccc4c3CC[C@@H]4Nc3nc(OC)c(CNCCC(=O)O)nc3C(F)(F)F)c2Cl)ccc1CN[C@H]1C[C@](C)(O)C1 [A-93]	≤ 0.064	83		
COc1nc(-c2cccc(-c3cccc4c3CC[C@@H]4Oc3nc(OC)c(CN4CC[C@@H](C(=O)O)C4)cc3Cl)c2C#N)ccc1CNC[C@@H]1CCC(=O)N1 [B-73]			0.064	81.7
COc1nc(-c2cccc(-c3cccc4c3CC[C@@H]4Oc3nc(OC)c(CNC[C@@H]4CCC(=O)N4)nc3C)c2Cl)ccc1CNC[C@@H]1CCC(=O)N1 [B-151]			0.072	66.2
COc1cc(N[C@H]2CCc3c(-c4cccc(-c5ccc(CNC[C@@H]6CCC(=O)N6)c(OC)n5)c4Cl)cccc32)c(Cl)cc1CN1CC[C@@](C)(C(=O)O)C1 [A-14, (R)-1-(5-chloro-4-(((S)-4-(2-chloro-3-(6-methoxy-5-(((((S)-5-oxopyrrolidin-2-yl)methyl)amino)methyl)pyridin-2-yl)phenyl)-2,3-dihydro-1H-inden-1-yl)amino)-2-methoxybenzyl)-3-methylpyrrolidine-3-carboxylic acid]	≤ 0.064	30.4		
COc1nc(-c2cccc(-c3cccc4c3CC[C@@H]4Oc3nc(OC)c(CN[C@H]4C[C@](C)(O)C4)cc3C(F)(F)F)c2Cl)ccc1CNC[C@@H]1CCC(=O)N1 [B-263]			0.064	4.94
COc1nc(-c2cccc(-c3cccc4c3CC[C@@H]4Oc3nc(OC)c(CN4CC5CCC4(C(=O)O)CC5)cc3C(F)(F)F)c2Cl)ccc1CN1CC2(CCC(=O)N2)C1 [B-226]			0.064	5.33
COc1nc(-c2cccc(-c3cccc4c3CC[C@@H]4Oc3nc(OC)c(CNC4(C(=O)O)CC4)cc3C(F)(F)F)c2Cl)ccc1CN1CC2(CCC(=O)N2)C1 [B-170]			0.064	15.2
COc1cc(N[C@H]2CCc3c(-c4cccc(-c5ccc(CNC[C@@H]6CCC(=O)N6)c(OC)n5)c4Cl)cccc32)c(C(F)(F)F)nc1CN1CC[C@@H](C(=O)O)C1 [A-43]	≤ 0.064	9.89		
COc1nc(-c2cccc(-c3cccc4c3CC[C@@H]4Oc3nc(OC)c(CNCC(=O)O)cc3C(F)(F)F)c2Cl)ccc1CNC[C@H]1C[C@](C)(O)C1 [B-206]			0.064	7.77
COc1nc(-c2cccc(-c3cccc4c3CC[C@@H]4Oc3nc(OC)c(CN4C[C@@H](C)[C@H]4C(=O)O)cc3Cl)c2Cl)ccc1CNC[C@@H]1CCC(=O)N1 [B-175]			0.064	14.3
COc1nc(-c2cccc(-c3cccc4c3CC[C@@H]4Oc3nc(OC)c(CN(C)CC(=O)O)cc3C(F)(F)F)c2Cl)ccc1CN[C@H]1C[C@](C)(O)C1 [B-210]			0.064	23.7
CCC1C(C(=O)O)CCN1Cc1nc(C(F)(F)F)c(N[C@H]2CCc3c(-c4cccc(-c5ccc(CNC[C@@H]6CCC(=O)N6)c(OC)n5)c4Cl)cccc32)nc1OC (stereo partly drawn) [A-77]	≤ 0.064	26.6		
COc1nc(-c2cccc(-c3cccc4c3CC[C@@H]4Nc3nc(OC)c(CNCC(=O)O)nc3C(F)(F)F)c2Cl)ccc1CN[C@@H]1CCCC[C@@H]1O [A-109]	≤ 0.064	8.98		
